Patent publication US20260364057A1, “AMIDE COMPOUND, AND COMPOSITION AND USE THEREOF” (SIMCERE ZAIMING PHARMACEUTICAL CO., LTD., priority 2022, published 2026)

Tests used:
[1] = biological target: T1, Human KIF18A (1-376aa) (Homo sapiens, UniProt Q8NI77); experiment: KIF18A enzyme activity assay (ADP-Glo); format: biochemical; conditions: microtubule 50 μg/mL, ATP (Km 70 μM), room temperature, 15 min, read-out: KIF18A inhibitory activity IC50
T1 construct: Human KIF18A (1-376aa) protease used in the experiments; purchased Shanghai Panchao Biotechnology Co., Ltd
T1 sequence (Q8NI77 1-376): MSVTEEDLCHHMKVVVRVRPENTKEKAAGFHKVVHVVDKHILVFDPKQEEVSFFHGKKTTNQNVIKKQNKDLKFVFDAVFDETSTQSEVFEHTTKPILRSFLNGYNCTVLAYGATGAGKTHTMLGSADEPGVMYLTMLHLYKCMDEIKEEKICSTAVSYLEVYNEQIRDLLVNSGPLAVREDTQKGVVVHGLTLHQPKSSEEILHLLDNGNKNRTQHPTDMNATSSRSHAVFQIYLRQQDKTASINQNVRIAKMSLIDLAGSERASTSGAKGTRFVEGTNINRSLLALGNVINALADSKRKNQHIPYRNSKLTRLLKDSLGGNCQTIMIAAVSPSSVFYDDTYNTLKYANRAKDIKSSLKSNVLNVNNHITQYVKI
Description: Test Example 1: KIF18A Enzyme Activity Assay
Based on the ADP-Glo™ Kinase Assay, the ADP amount generated in the reaction was detected to reflect the enzyme activity of KIF18A.
Human KIF18A (1-376aa) […] used in the experiments, expressed by Shanghai Panchao Biotechnology Co., Ltd., was stored at −80 °C (no more than 5 freeze-thaw cycles).
The assay kit (ADP-Glo™ Kinase Assay) was purchased from Promega (Cat. No. V9101) and stored at −30 °C. The kit detects the enzyme activity by measuring ADP generated in enzyme reaction. The KIF18A enzyme and ATP generate ADP. The remaining ATP in this reaction is consumed by the ADP-Glo reagent, while the ADP generated by the KIF18A enzyme reaction is converted back to ATP by the assay reagent. The ATP then reacts with luciferin in the presence of Ultra-Glo™ luciferase, producing luminescence. The luminescent signal is positively correlated with the activity of the KIF18A enzyme.
Compounds were each subjected to 3-fold serial dilution starting from 10 μM to obtain 10 concentration points. The compounds and pure DMSO (control) were pipetted into wells of a 384-well plate using an Echo instrument, and the total volume of compound and DMSO was 100 nL; sample concentrations of gradient dilution were obtained by the instrument based on different ratios. Preparation of a KIF18A enzyme reaction buffer: […], 10 mM MgCl2, 0.01% Pluronic F-68, 1 μM Taxol, and 50 μg/mL Microtubule. KIF18A and the enzyme reaction buffer were mixed, and then the mixed solution was added to the 384-well plate and incubated at room temperature for 15 min. ATP (Km 70 μM) was then added to the mixed solution, and the mixed solution was incubated at room temperature for 15 min. 10 μL of ADP-Glo™ Reagent was well mixed with 10 μL of the mixed solution, and the mixture was incubated at room temperature for 40 min. Finally, 20 μL of ADP-Glo™ Detection Reagent was added, and the mixture was incubated at room temperature for 30 min. The chemiluminescent signal in each well was measured using an Envision plate reader (PerkinElmer, emission wavelength: 400-700 nm). In the experiment, 1 column of wells with no compound and no enzyme (chemiluminescence value was taken as [RLU]background) and 1 column of wells with enzyme but no compound (chemiluminescence value was taken as [RLU]enzyme) were provided. The chemiluminescence value of the compound adding group was taken as [RLU]cpd. The inhibition rate of the compound on […] was calculated according to the following equation: inhibition rate (%)=([RLU]enzyme−[RLU]cpd)/([RLU]enzyme−[RLU]background)×100%, and the inhibitory activity IC50 value of the compound on the enzyme activity was calculated using a four-parameter Logistic Model method. In the following equation, x represents the logarithmic form of the concentration of compound, and f (x) represents an effect value (inhibition rate of enzyme activity at the concentration): F(x)=(A+((B−A)/(1+((C/x)^D)))). A. B, C, and D are four parameters.

[2] = tested on: OVCAR3 cells; experiment: Inhibition of proliferation of OVCAR-3 cells (Cell-Titer Glo); format: cell-based; conditions: Homo sapiens, OVCAR-3, 72 h, 3 days, 1000 cells/well
Excerpt: Test Example 2. Test on Inhibition of Proliferation of OVCAR-3 Cells by Compounds of Present Disclosure
Cell and material: The human ovarian cancer cell line OVCAR3 was purchased from ATCC (Cat. No. HTB-161™), RPMI 1640 medium (Gibco #A1049101), penicillin-streptomycin (Gibco #15140122), and 0.25% Trypsin-EDTA (Gibco #25200056) were purchased from Gibco (U.S.), bovine insulin (Yeasen #40107ES60) was purchased from Yeasen, 384-well plates (Corning #CLS3765) was purchased from Corning (U.S.), and Cell-Titer Glo reagent (Promega #G7568) was purchased from Promega (U.S.).
Cell culture: OVCAR3 cells were cultured in RPMI 1640 complete medium (RPMI 1640 medium containing 20% fetal bovine serum, […] bovine insulin, and 1% penicillin-streptomycin) in an incubator (37 °C, 5% CO2), and the cells could be used in experiments when in the logarithmic growth phase.
Cell proliferation activity test: The Cell-Titer Glo reagent was used to test the compound for inhibition of proliferation of the OVCAR3 cell strain. The compound formulated with DMSO and pure DMSO (control) were each added to a 384-well plate using an Echo instrument; the compound was subjected to 3-fold serial dilution starting from 30 μM to obtain 11 concentration points, and the volume of the compound or DMSO added was 100 nL.
OVCAR3 cells were digested and resuspended in RPMI 1640 complete medium, and the suspension was added to a 384-well plate (1000 cells/50 μL/well) to be well mixed with the compound. The mixture was incubated in an incubator (37 °C, 5% CO2) for 3 days. The Cell-Titer Glo reagent was added at 25 µL/well, and the resulting mixture was well mixed by shaking and then incubated for 10 min. The Cell-Titer Glo readings were measured with a Multimode Plate Reader (brand: PerkinElmer; model: SIC-PV-018).
A negative control group (Bottom) was set, and the negative control group was medium wells with 0.2% DMSO added and was defined as 100% proliferation inhibition; the positive control group (Top) was OVCAR3 cell wells with 0.2% DMSO added.
The percent proliferation inhibition (% Inhibition) was calculated, and the curves were fit using the four-parameter equation, Y=Bottom+(Top−Bottom)/(1+(IC50/X)^HillSlope), to obtain the proliferation inhibition IC50 of the compound. • Percent inhibition: % Inhibition=(1−(Signal−Bottom)/(Top−Bottom))×100%. • Signal: Cell-Titer Glo reading of wells with compound added; • Bottom: Cell-Titer Glo reading of negative control wells; • Top: Cell-Titer Glo reading of positive control wells.

Row | IC50 [1] [µM] | IC50 [2] [µM] | SMILES
1 | < 0.2 | 0.011 | O=C(Nc1cc2c(c(N3CCC(F)(F)CC3)c1)OCCC2)c1ccc(NS(=O)(=O)CCO)cc1N1CCC2(CC1)CC2 [Compound 60]
2 | < 0.2 | 0.077 | O=C(Nc1cccc2c1nc1n2CCCCCC1)c1ccc(NS(=O)(=O)CCO)cc1N1CCC2(CC1)CC2 [Compound 61]
3 | < 0.2 | 0.0657 | O=C(Nc1cccc2c3c(nn12)CCCCC3)c1ccc(NS(=O)(=O)CCO)cc1N1CCC2(CC1)CC2 [Compound 64]
4 | < 0.5 | 0.0167 | O=C(Nc1cc2c(c(N3CCC(F)(F)CC3)n1)OCC2)c1ccc(NS(=O)(=O)CCO)cc1N1CCC2(CC1)CC2 [Compound 65]
5 | < 0.2 | 0.07 | O=C(Nc1cc2c(c(N3CCC(F)(F)CC3)n1)COC2)c1ccc(NS(=O)(=O)CCO)cc1N1CCC2(CC1)CC2 [Compound 67]
6 | < 0.2 | 0.0416 | CC1CCCCc2nc3c(NC(=O)c4ccc(NS(=O)(=O)CCO)cc4N4CCC5(CC4)CC5)cccc3n21 (stereo not shown) [Compound 68]
7 | < 0.2 | 0.0933 | O=C(Nc1cccc2c1nc1n2CC2CC2C1)c1ccc(NS(=O)(=O)CCO)cc1N1CCC2(CC1)CC2 (stereo not shown) [Compound 70]
8 | < 0.2 | 0.0942 | O=C(Nc1cccc2c1nc1n2CCC2CC12)c1ccc(NS(=O)(=O)CCO)cc1N1CCC2(CC1)CC2 (stereo not shown) [Compound 71]
9 | < 0.2 | 0.0573 | O=C(Nc1cccc2c1nc1n2C2CCC1C2)c1ccc(NS(=O)(=O)CCO)cc1N1CCC2(CC1)CC2 (stereo not shown) [Compound 72]
10 | < 0.2 | 0.038 | CCS(=O)(=O)Nc1ccc(C(=O)Nc2cc3c(c(N4CCC(F)(F)CC4)c2)CCC3)c(N2CCC3(CC2)CC3)c1 [Compound 73]
11 | < 0.2 | 0.024 | O=C(Nc1cccc2c1nc1n2CC2CCC1C2(F)F)c1ccc(NS(=O)(=O)CCO)cc1N1CCC2(CC1)CC2 (stereo not shown) [Compound 74]
12 | < 0.2 | 0.0431 | O=C(Nc1cccc2c1nc1n2CC(C(F)(F)F)C1)c1ccc(NS(=O)(=O)CCO)cc1N1CCC2(CC1)CC2 (stereo not shown) [Compound 76]
13 | < 0.2 | 0.0254 | O=C(Nc1cccc2c1nc1n2C2CCC1OC2)c1ccc(NS(=O)(=O)CCO)cc1N1CCC2(CC1)CC2 (stereo not shown) [Compound 77]
14 | < 0.2 | 0.0453 | O=C(Nc1cccc2c3n(nc12)CCCCC3)c1ccc(NS(=O)(=O)CCO)cc1N1CCC2(CC1)CC2 [Compound 78]
15 | < 0.2 | 0.024 | O=C(Nc1cc(N2CCC(F)(F)CC2)c2nccn2c1)c1ccc(NS(=O)(=O)CCO)cc1N1CCC2(CC1)CC2 [Compound 80]
16 | < 0.2 | 0.0182 | O=C(Nc1cc(N2CCC(F)(F)CC2)n2nccc2c1)c1ccc(NS(=O)(=O)CCO)cc1N1CCC2(CC1)CC2 [Compound 81]

Row | IC50 [1] [µM] | IC50 [2] [µM] | SMILES
17 | < 0.2 | 0.0993 | CC1(C)Cc2cc(NC(=O)c3ccc(NS(=O)(=O)CCO)cc3N3CCC4(CC3)CC4)cc(N3CCC(F)(F)CC3)c2O1 [Compound 82]
18 | < 0.5 | 0.086 | O=C(Nc1cccc2c1nc1n2C2COC1C2)c1ccc(NS(=O)(=O)CCO)cc1N1CCC2(CC1)CC2 (stereo not shown) [Compound 83]
19 | < 0.2 | 0.0065 | O=C(Nc1cccc2c1nc1n2CC2C1C2(F)F)c1ccc(NS(=O)(=O)CCO)cc1N1CCC2(CC1)CC2 (stereo not shown) [Compound 86]
20 | < 0.2 | 0.031 | CC1(C)Cn2c(nc3c(NC(=O)c4ccc(NS(=O)(=O)CCO)cc4N4CCC5(CC4)CC5)cccc32)CO1 [Compound 87]
21 | < 0.2 | 0.098 | O=C(Nc1cccc2c1nc1n2CC2CC1C2(F)F)c1ccc(NS(=O)(=O)CCO)cc1N1CCC2(CC1)CC2 (stereo not shown) [Compound 88]
22 | < 0.2 | 0.0484 | N#Cc1ccc(NC(=O)c2ccc(NS(=O)(=O)CCO)cc2N2CCC3(CC2)CC3)c2nc3n(c12)CC1CC31 (stereo not shown) [Compound 92]
23 | < 0.2 | 0.025 | COc1ccc(NC(=O)c2ccc(NS(=O)(=O)CCO)cc2N2CCC3(CC2)CC3)c2nc3n(c12)CCCCC3 [Compound 96]
24 | < 0.2 | 0.0091 | O=C(Nc1cc2c(c(N3CCC(F)(F)CC3)c1)COC2)c1ccc(NS(=O)(=O)CCO)cc1N1CCC2(CC1)CC2 [Compound 101]
25 | < 0.2 | 0.0147 | O=C(Nc1cc2c(c(N3CCC(F)(F)CC3)c1)CC2)c1ccc(NS(=O)(=O)CCO)cc1N1CCC2(CC1)CC2 [Compound 103]
26 | < 0.2 | 0.0149 | CS(=O)(=O)Nc1ccc(C(=O)Nc2cn3ccnc3c(N3CCC(F)(F)CC3)n2)c(N2CCC3(CC2)CC3)c1 [Compound 105]
27 | < 0.2 | 0.0157 | O=C(Nc1cc2ccoc2c(N2CCC(F)(F)CC2)n1)c1ccc(NS(=O)(=O)CCO)cc1N1CCC2(CC1)CC2 [Compound 106]
28 | < 0.2 | 0.0993 | O=C(Nc1cccc2c3c(nn12)C1CC1C3)c1ccc(NS(=O)(=O)CCO)cc1N1CCC2(CC1)CC2 (stereo not shown) [Compound 107]
29 | < 0.2 | 0.0374 | O=C(Nc1cc2ccnn2c(N2CCC(F)(F)CC2)n1)c1ccc(NS(=O)(=O)CCO)cc1N1CCC2(CC1)CC2 [Compound 109]
30 | < 0.2 | 0.0112 | N#Cc1ccc(NC(=O)c2ccc(NS(=O)(=O)CCO)cc2N2CCC3(CC2)CC3)c2nc3n(c12)CC1C3C1(F)F (stereo not shown) [Compound 110]
31 | < 0.2 | 0.0153 | COC(=O)c1ccc(NC(=O)c2ccc(NS(=O)(=O)CCO)cc2N2CCC3(CC2)CC3)c2nc3n(c12)CCCCC3 [Compound 112]
32 | < 0.2 | 0.00532 | CCNC(=O)c1ccc(NC(=O)c2ccc(NS(=O)(=O)CCO)cc2N2CCC3(CC2)CC3)c2nc3n(c12)CCCCC3 [Compound 113]
